Values of other authors in patent US12343354B2, “Injection containing p-boronophenylalanine” (Stella Pharma Corporation, priority 2019, dated 2025).

Conditions: physiological pH

SMILES: N[C@@H](Cc1ccc(B(O)O)cc1)C(=O)O [p-Boronophenylalanine, p-boronophenylalanine]
- solubility: very poor solubility
